The values below come from patent publication US20230265391A1, “METHODS AND COMPOSITIONS FOR MAKING AND USING ENDOCARDIAL CELLS” (University Health Network, priority 2020, published 2023).

Common to all, as to assay type: cell-based, human
Assay [1] relates to NKX2-5+ CD31+ cells. Kind of assay: Generation of NKX2-5+ CD31+ cells from hPSC-derived cardiogenic mesoderm (flow cytometry). The method, then:
To generate endocardial/endothelial cells, hPSCs were differentiated to cardiogenic mesoderm using the protocol described above. At day 3, the EBs were dissociated with TrypLE for 3 min at 37° C. and the cells plated in 96-well flat bottom microplates (Falcon) coated with Matrigel (25% v/v, Corning) at a density of 10e5 cells per well. The monolayers were cultured in StemPro-34 supplemented with penicillin/streptomycin (1%, ThermoFisher), L-glutamine (2 mM, ThermoFisher), ascorbic acid (50 μg/ml, Sigma), monothioglycerol (50 μg/ml, Sigma), transferrin (150 μg/ml, ROCHE) and rhbFGF (50 ng/ml, R&D). For endocardial induction, rhBMP10 (10 ng/ml) was added to the media from day 5 to day 9. For generation of control endothelial cells, VEGFA (100 ng/mL, R&D) was added to the differentiation media from day 3 to day 9. The cultures were incubated in a low oxygen environment (5% CO2, 5%O2, 90% N2) and the media was changed every 2 days. At day 9, HES3-NKX2-5eGFP/w-derived endocardial/endothelial cells were analyzed and isolated based on the expression of NKX2-5:GFP and CD31. The endocardial cells generated from the non-transgenic hPSC lines were analyzed and isolated as CD31+ populations. For dissociation, the monolayers were incubated in Collagenase type 2 (1 mg/ml, Worthington) in HANKs buffer at 37° C. for one hour.
Day 3 EBs were dissociated with TrypLE for 3 min at 37° C. Day 9-23 EBs or mixed populations of cardiomyocytes and endocardial/endothelial cells were dissociated by incubation in Collagenase type 2 (1 mg/ml, Worthington) in HANKS buffer at 37° C. for one hour followed by TrypLE treatment (5 min at 37° C.). The following antibodies were used for staining: anti-SIRPA-PeCy7 (Biolegend, 1:1000), anti-CD31-PE (BD Pharmingen, 1:100), anti-CD31-FITC (BD Pharmingen, 1:100), anti-CD31-AF647 (BD Pharmingen, 1:100), anti-CD90-APC (BD Pharmingen, 1:1000), anti-PDGFRB-BV421 (BD Pharmingen, 1:100), anti-CD105-APC (eBioscience, 1:200), anti-CD56-APC (BD Pharmingen, 1:100), anti-PDGFRA-PE (BD Pharmingen, […]), anti-CD36-APC (Biolegend, 1:100), anti-LDLR-BV421 (Biolegend, 1:100), anti-cardiac isoform of CTNT (ThermoFisher Scientific, 1:2000), or anti-myosin light chain 2 (Abcam, 1:1000), anti-ANP (Abcam, 1:500). For unconjugated primary antibodies, the following secondary antibodies were used for detection: goat anti-mouse IgG-APC (BD Pharmigen, 1:250), or donkey anti-rabbit IgG-AF488 (ThermoFisher Scientific, 1:1000). Detailed antibody information is described in the Key Resources Table. For cell-surface marker analyses, cells were stained for 30 min at 4° C. in FACS buffer consisting of PBS with 5% fetal calf serum (FCS) (Wisent) and 0.02% sodium azide. For intracellular staining, cells were fixed for 15 min at 4° C. with 4% PFA in PBS followed by permeabilization using 90% methanol for 20 min at 4° C. Cells were washed with PBS containing 0.5% BSA (Sigma) and stained with unconjugated primary antibodies in FACS buffer overnight at 4° C. Stained cells were washed with PBS with 0.5% BSA and stained with secondary antibodies in FACS buffer for 1 h at 4° C. Stained cells were analyzed using an LSR II Flow cytometer (BD). For cell sorting, cells were stained, washed and kept in IMDM with 0.2% KnockOut™ serum replacement and sorted using either Influx (BD), FACSAriaII (BD), MoFlo-XDP (BD) of FACSAria Fusion (BD) cells sorter at the Sickids/UHN flow cytometry facility. Data were analyzed using FlowJo software (Tree Star).
Initial experiments were set up to identify the signaling pathways that would promote the generation of a NKX2-5+ CD31+ cell that we propose represents the earliest stage of human endocardial development. The transgenic HES3-NKX2-5eGFP/w reporter line (Elliott et al., 2011, Nat. Methods, 8(12):1037-40) was used to allow for the identification of NKX2-5+ cells by flow cytometry. […]

Assay [2] deals with NKX2-5+ CD31+ endocardial-like cells and SIRPA+ cardiomyocytes. Kind of assay: Co-culture of NKX2-5+ CD31+ endocardial-like cells (HES3-NKX2-5eGFP/w) with SIRPA+ cardiomyocytes. The method, then: (§1) For culture in the absence of cardiomyocytes, the endocardial or control endothelial cells (HES3-NKX2-5eGFP/w line) isolated at day 9 of differentiation were plated in a 96-well flat bottom microplate (Falcon) coated with Matrigel (25% v/v, Corning) at a density 2.5×10e4 cells per well in StemPro-34 supplemented with penicillin/streptomycin (1%, ThermoFisher), L-glutamine (2 mM, ThermoFisher), ascorbic acid (50 μg/ml, Sigma), monothioglycerol (50 μg/ml, Sigma), rhVEGFA (100 ng/ml, R&D) with or without rhBMP10 (10 ng/ml) or rhBMP4 (10 ng/ml). For co-culture of the two cell types, 5×10e4 hPSC-derived SIRPA+ cardiomyocytes (day 9) were mixed together with either 2.5×10e4 HES3-NKX2-5eGFP/w- or 5×10e4 HES2:RFP-derived endocardial or endothelial cells and cultured for 8 days in 96-well flat bottom microplates (Falcon) coated with Matrigel (25% v/v, Corning) in StemPro-34 supplemented with penicillin/streptomycin (1%, ThermoFisher), L-glutamine (2 mM, ThermoFisher), ascorbic acid (50 μg/ml, Sigma), monothioglycerol (50 μg/ml, Sigma) and rhVEGFA (100 ng/ml, R&D). For inhibition of the NRG-ERBB pathway lapatinib (10 μM, LC labs) was added to the media. Control cardiomyocytes were cultured as aggregates as described above in the same media with or without NRG1 (50 ng/ml). The cultures were incubated in a normoxic environment (5% CO2) and the media was changed every 2 days. […]

Assay [3] relates to NKX2-5+ CD31+ endocardial-like cells. Kind of assay: 8-day culture of sorted day 9 NKX2-5+ CD31+ endocardial-like or control endothelial cells with VEGFA and BMP. As for the experimental part:
For culture in the absence of cardiomyocytes, the endocardial or control endothelial cells (HES3-NKX2-5eGFP/w line) isolated at day 9 of differentiation were plated in a 96-well flat bottom microplate (Falcon) coated with Matrigel (25% v/v, Corning) at a density 2.5×10e4 cells per well in StemPro-34 supplemented with penicillin/streptomycin (1%, ThermoFisher), L-glutamine (2 mM, ThermoFisher), ascorbic acid (50 μg/ml, Sigma), monothioglycerol (50 μg/ml, Sigma), rhVEGFA (100 ng/ml, R&D) with or without rhBMP10 (10 ng/ml) or rhBMP4 (10 ng/ml). For co-culture of the two cell types, 5×10e4 hPSC-derived SIRPA+ cardiomyocytes (day 9) were mixed together with either 2.5×10e4 HES3-NKX2-5eGFP/w- or 5×10e4 HES2:RFP-derived endocardial or endothelial cells and cultured for 8 days in 96-well flat bottom microplates (Falcon) coated with Matrigel (25% v/v, Corning) in StemPro-34 supplemented with penicillin/streptomycin (1%, ThermoFisher), L-glutamine (2 mM, ThermoFisher), ascorbic acid (50 μg/ml, Sigma), monothioglycerol (50 μg/ml, Sigma) and rhVEGFA (100 ng/ml, R&D). For inhibition of the NRG-ERBB pathway lapatinib (10 μM, LC labs) was added to the media. Control cardiomyocytes were cultured as aggregates as described above in the same media with or without NRG1 (50 ng/ml). The cultures were incubated in a normoxic environment (5% CO2) and the media was changed every 2 days.
To further investigate differences between these pathway agonists, BMP10-induced NKX2-5+ CD31+ cells were cultured in the presence of different concentrations of either BMP4 or BMP10 for 8 days. VEGFA was added to maintain the endothelial phenotype of the cells during this culture period.

Assay [4] deals with NKX2-5+ CD31+ cells. Briefly: Generation of NKX2-5+ CD31+ cells from hPSC-derived cardiogenic mesoderm (flow cytometry). Particulars: BMP alone (10 ng/ml) in the absence of bFGF; day 9.
For assay [5], the system named is RFP+ CD31+ endocardial-like cells and SIRPA+ cardiomyocytes. Kind of assay: Co-culture of HES2-RFP CD31+ endocardial-like cells with HES2-GFP SIRPA+ cardiomyocytes. The settings on record: lapatinib 10 μM, 8 days co-culture, VEGFA 100 ng/ml. As for the experimental part: as §1

Consider `Cc1c[nH]c(-c2cnc(NCCNc3ccc(C#N)cn3)nc2-c2ccc(Cl)cc2Cl)n1` [CHIR99021, reference compound], for which the “total number of NKX2-5+ CD31+ cells produced” value in the assay with NKX2-5+ CD31+ cells [1] (1 μM CHIR99021 for 2, 4 or 6 days from day 3, day 9) is given as “did not impact”. Also, in the assay with NKX2-5+ CD31+ cells [1] (1 μM CHIR99021 for 6 days from day 3, day 9), the “frequency of NKX2-5+ CD31+ cells” value was “decrease”.
Regarding `c1ccc2c(-c3cnn4cc(-c5ccc(N6CCNCC6)cc5)cnc34)ccnc2c1` [LDN193189], in assay [2] (cells isolated from co-cultures and cells treated with BMP10, 8 days, different concentrations of LDN193189), the “NKX2-5 expression in endocardial cells” value is given as “partial downregulation”.
As for `Cc1ccc2nc(NC(=O)CSc3nc4c(c(=O)n3-c3ccccc3)SCC4)sc2c1` [IWP2, reference compound], the “total number of NKX2-5+ CD31+ cells” value with NKX2-5+ CD31+ cells [1] (IWP2 added for 4 or 6 days from day 3, day 9) was “reduced”. For the same molecule, the “frequency of NKX2-5+ CD31+ cells generated” value in the assay on NKX2-5+ CD31+ cells [1] (Wnt inhibition, 2 μM IWP2 for 2, 4 or 6 days from day 3, day 9 read-out) is on record as “significant reduction”.
Regarding BMP10: Recombinant human BMP10 (R&D), the “proportion of NKX2-5+ CD31+ cells generated” value with NKX2-5+ CD31+ cells [1] (BMP 10 ng/ml paired with exogenous bFGF, day 9) was “significantly increased”. For the same molecule, in the assay with NKX2-5+ CD31+ cells [1] (BMP10-induced versus BMP4-induced cells), the “NRG1 expression in induced NKX2-5+ CD31+ population (RT-qPCR)” value was “higher levels”. Also, in the assay with NKX2-5+ CD31+ cells [1] (BMP10-induced versus BMP4-induced or control endothelial populations), the “fraction of CD105+ cells” value is “much larger fraction”. Further, the “total number of NKX2-5+ CD31+ cells at days 8 and 9” value in the assay with NKX2-5+ CD31+ cells [1] (BMP10-induced versus BMP4-treated populations) is recorded as “significantly higher”. In the assay with NKX2-5+ CD31+ cells [1] (BMP agonist with bFGF, populations persisted to day 12), the “day of emergence of NKX2-5+ CD31+ cells” value was 8 days. Further, the “concentration inducing the highest frequency and number of NKX2-5+ CD31+ cells” value in the assay with NKX2-5+ CD31+ cells [1] (days 5-9, in presence of bFGF 50 ng/ml) was 10 ng/mL. Moreover, the “NRG1 levels in cultured NKX2-5+ CD31+ cells” value in assay [3] (8 days, BMP10 10 ng/ml versus BMP4 10 ng/ml, VEGFA 100 ng/ml) is listed as “sustained higher levels”. Also, the “maintaining the NKX2-5+ CD31+ cell phenotype” value in assay [3] (8 days, VEGFA 100 ng/ml, all concentrations of agonist tested) was “more effective than BMP4”. Besides, the “NRG1 expression in control endothelial population” value in assay [3] (BMP10 added during 8-day culture) is reported as “did not lead to the upregulation”. In the assay with NKX2-5+ CD31+ cells [4], the “populations containing CD31+ cells” value is listed as “None”.
Take `CS(=O)(=O)CCNCc1ccc(-c2ccc3ncnc(Nc4ccc(OCc5cccc(F)c5)c(Cl)c4)c3c2)o1` [lapatinib]: in assay [2] (lapatinib 10 μM, 8 days co-culture, VEGFA 100 ng/ml), the “induction of the trabecular fate by NKX2-5+ CD31+ endocardial-like cells” value is on record as “inhibited”. The “induction of trabecular myocardium markers by RFP+ CD31+ endocardial-like cells” value in assay [5] is listed as “inhibited”.
